In patent publication US9914739B2, “6H-furo[2,3-E]indole compounds for the treatment of hepatitis C” (BRISTOL-MYERS SQUIBB COMPANY, priority 2014, dated 2018):

Tested on: genotype 1b (Con-1) HCV replicon
Assay: HCV replicon luciferase assay, genotype 1b
Format: cell-based
Conditions: Hepatitis C virus, Huh-7, 72 h, Huh-7 cells with genotype 1b HCV replicon, Renilla luciferase, 3 days incubation
Method: The cell lines used to evaluate compounds consist of a human hepatocyte derived cell line (Huh-7) that constitutively expresses a genotype 1b (Con-1) HCV replicon or a genotype 1b (Con-1) HCV replicon with an asparagine replacing the cysteine at amino acid 316, or a genotype 2a (JFH-1) replicon, containing a Renilla luciferase reporter gene. These cells were maintained in Dulbecco's modified Eagle medium (DMEM) containing 10% FBS, 100 U/mL penicillin/streptomycin and 1.0 mg/mL G418.
To evaluate compound efficacy, titrated compounds were transferred to sterile 384-well tissue culture treated plates, and the plates were seeded with HCV replicon cells (50 μL at a density of 2.4×10^3 cells/well) in DMEM containing 4% FBS (final DMSO concentration at 0.5%). After 3 days incubation at 37° C., cells were analyzed for Renilla Luciferase activity using the EnduRen substrate (Promega cat #E6485) according to the manufacturer's directions. Briefly, the EnduRen substrate was diluted in DMEM and then added to the plates to a final concentration of 7.5 μM. The plates were incubated for at least 1 h at 37° C. then read on a Viewlux Imager (PerkinElmer) using a luminescence program. The 50% effective concentration (EC50) was calculated using the four-parameter logistic formula noted above.

SMILES	EC50 (class symbol)	EC50 (numeric value)
CNC(=O)c1c(-c2ccc(F)cc2)oc2c1cc(-c1cccc(C(=O)NCC(C)(C)CO)c1)c1[nH]ccc12 [Compound 4008]	0.1 to 1 µM	0.13 µM
CNC(=O)c1c(-c2ccc(F)cc2)oc2c1cc(-c1cccc(C(=O)NCC3(CO)CCC3)c1)c1[nH]ccc12 [Compound 4011]	0.1 to 1 µM	
CCOC(=O)c1c(-c2ccc(F)cc2)oc2c1cc(OC(C)C)c1[nH]ccc12 [Compound 1001, ethyl 2-(4-fluorophenyl)-5-isopropoxy-6H-furo[2,3-e]indole-3-carboxylate]	> 1 µM	
C#CC(C)NC(=O)c1cccc(-c2cc3c(C(=O)NC)c(-c4ccc(F)cc4)oc3c3cc[nH]c23)c1 (stereo not drawn) [Compound 4021]	0.1 to 1 µM	
CCN(C)C(=O)c1c(-c2ccc(F)cc2)oc2c1cc(OC(C)C)c1c2ccn1CC [Compound 6004]	> 1 µM	
CNC(=O)c1c(-c2ccc(F)cc2)oc2c1cc(-c1cccc(C(=O)NC(C)(C)C)c1)c1[nH]cc(C(=O)C(=O)OC)c12 [Compound 2003, methyl 2-(5-(3-(tert-butylcarbamoyl)phenyl)-2-(4-fluorophenyl)-3-(methylcarbamoyl)-6H-furo[2,3-e]indol-8-yl)-2-oxoacetate]	0.1 to 1 µM	0.44 µM
CNC(=O)c1c(-c2ccc(F)cc2)oc2c1cc(-c1cccc(C(=O)NC(C)(C)C#N)c1)c1[nH]ccc12 [Compound 4022]	< 0.1 µM	0.015 µM
CNC(=O)c1c(-c2ccc(F)cc2)oc2c1cc(-c1cccc(C(=O)NC(C)(C)CCO)c1)c1[nH]ccc12 [Compound 4003]	< 0.1 µM	
CNC(=O)c1c(-c2ccc(F)cc2)oc2c1cc(-c1cccc(C(=O)NC3(C(=O)OC)CCC3)c1)c1[nH]ccc12 [Compound 4012]	0.1 to 1 µM	
CNC(=O)c1c(-c2ccc(F)cc2)oc2c1cc(-c1cccc(C(=O)NC(C)(C)C)c1)c1c2ccn1C(=O)C(F)(F)F [Compound 3003]	0.1 to 1 µM	0.2 µM
CNC(=O)c1c(-c2ccc(F)cc2)oc2c1cc(-c1cccc(C(=O)NCC(C)(C)c3ccc(Cl)cc3)c1)c1[nH]ccc12 [Compound 4009, 5-(3-((2-(4-chlorophenyl)-2-methylpropyl)carbamoyl)phenyl)-2-(4-fluorophenyl)-N-methyl-6H-furo[2,3-e]indole-3-carboxamide]	0.1 to 1 µM	
CNC(=O)c1c(-c2ccc(F)cc2)oc2c1cc(-c1cccc(C(=O)NC(C)(C)C(=O)OC)c1)c1[nH]ccc12 [Compound 4004]	< 0.1 µM	
CNC(=O)c1c(-c2ccc(F)cc2)oc2c1cc(OC(C)C)c1c2ccn1CC(F)F [Compound 6001]	> 1 µM	
C#CC(CC)(CC)NC(=O)c1cccc(-c2cc3c(C(=O)NC)c(-c4ccc(F)cc4)oc3c3cc[nH]c23)c1 [Compound 4018]	< 0.1 µM	
CNC(=O)c1c(-c2ccc(F)cc2)oc2c1cc(-c1cccc(C(=O)OC)c1)c1[nH]ccc12 [Compound 1003]	> 1 µM	1.46 µM
C#CC(C)(CC)NC(=O)c1cccc(-c2cc3c(C(=O)NC)c(-c4ccc(F)cc4)oc3c3cc[nH]c23)c1 (stereo not drawn) [Compound 4019]	0.1 to 1 µM	
CCN(CC(C)(C)C)C(=O)c1cccc(-c2cc3c(C(=O)NC)c(-c4ccc(F)cc4)oc3c3ccn(CC)c23)c1 [Compound 6007]	0.1 to 1 µM	
CNC(=O)c1c(-c2ccc(F)cc2)oc2c1cc(OC(C)C)c1[nH]ccc12 [Compound 1002, 2-(4-fluorophenyl)-5-isopropoxy-N-methyl-6H-furo[2,3-e]indole-3-carboxamide]	> 1 µM	
CCc1c[nH]c2c(OC(C)C)cc3c(C(=O)NC)c(-c4ccc(F)cc4)oc3c12 [Compound 6003]	> 1 µM	
CCc1cn(CC)c2c(OC(C)C)cc3c(C(=O)NC)c(-c4ccc(F)cc4)oc3c12 [Compound 6005]	> 1 µM	
CNC(=O)c1c(-c2ccc(F)cc2)oc2c1cc(-c1cccc(C(=O)NC(C)(C)C)c1)c1[nH]cc(C(=O)C(=O)N(C)C)c12 [Compound 2006]	> 1 µM	

SMILES	EC50 (class symbol)	EC50 (numeric value)
CNC(=O)C(=O)c1c[nH]c2c(-c3cccc(C(=O)NC(C)(C)C)c3)cc3c(C(=O)NC)c(-c4ccc(F)cc4)oc3c12 [Compound 2005]	> 1 µM	5.16 µM
CNC(=O)c1c(-c2ccc(F)cc2)oc2c1cc(-c1cccc(C(=O)NC(C)(C)C)c1)c1c2cc(C)n1S(C)(=O)=O [Compound 5005]	> 1 µM	
CNC(=O)c1c(-c2ccc(F)cc2)oc2c1cc(-c1cccc(C(=O)NC(C)(C)c3ccc(Cl)cc3)c1)c1[nH]ccc12 [Compound 4010]	< 0.1 µM	0.027 µM
CNC(=O)c1c(-c2ccc(F)cc2)oc2c1cc(-c1cccc(C(=O)NCC(C)(F)F)c1)c1[nH]ccc12 [Compound 4005]	0.1 to 1 µM	0.15 µM
CNC(=O)c1c(-c2ccc(F)cc2)oc2c1cc(-c1cccc(C(=O)NC(C)(C)C)c1)c1c2cc(-c2ccccc2)n1S(C)(=O)=O [Compound 5004]	0.1 to 1 µM	
CNC(=O)c1c(-c2ccc(F)cc2)oc2c1cc(-c1ccc(OC)c(C(=O)NCC(F)(F)C(F)(F)C(F)(F)F)c1)c1[nH]ccc12 [Compound 1009]	< 0.1 µM	
CCn1ccc2c3oc(-c4ccc(F)cc4)c(C(=O)NC)c3cc(OC(C)C)c21 [Compound 6002]	> 1 µM	
CNC(=O)c1c(-c2ccc(F)cc2)oc2c1cc(-c1cccc(C(=O)NC(C)(C)C)c1)c1[nH]c(C)cc12 [Compound 1008]	0.1 to 1 µM	
CNC(=O)c1c(-c2ccc(F)cc2)oc2c1cc(-c1cccc(C(=O)NC(C)(C)C)c1)c1c2ccn1S(C)(=O)=O [Compound 5002]	< 0.1 µM	
CNC(=O)c1c(-c2ccc(F)cc2)oc2c1cc(-c1cccc(C(=O)NC(C)(C)C)c1)c1[nH]cc(C)c12 [Compound 1006]	0.1 to 1 µM	0.51 µM
C#CC(C)(C)NC(=O)c1cccc(-c2cc3c(C(=O)NC)c(-c4ccc(F)cc4)oc3c3cc[nH]c23)c1 [Compound 4013]	< 0.1 µM	
CNC(=O)c1c(-c2ccc(F)cc2)oc2c1cc(OC(C)C)c1c2ccn1S(C)(=O)=O [Compound 5001, 2-(4-fluorophenyl)-5-isopropoxy-N-methyl-6-(methylsulfonyl)-6H-furo[2,3-e]indole-3-carboxamide]	> 1 µM	
CNC(=O)c1c(-c2ccc(F)cc2)oc2c1cc(-c1cccc(C(=O)NC34CC(C3)C4)c1)c1[nH]ccc12 [Compound 4002]	< 0.1 µM	
CNC(=O)c1c(-c2ccc(F)cc2)oc2c1cc(-c1cccc(C(=O)NCC(F)(F)c3ccccn3)c1)c1[nH]ccc12 [Compound 4020]	0.1 to 1 µM	
CNC(=O)c1c(-c2ccc(F)cc2)oc2c1cc(-c1cccc(C(=O)NC3(c4ncccn4)CC3)c1)c1[nH]ccc12 [Compound 4006]	< 0.1 µM	
CNC(=O)c1c(-c2ccc(F)cc2)oc2c1cc(-c1cccc(C(=O)NCC(C)(C)c3ccccc3)c1)c1[nH]ccc12 [Compound 4016]	0.1 to 1 µM	
C#CC1(NC(=O)c2cccc(-c3cc4c(C(=O)NC)c(-c5ccc(F)cc5)oc4c4cc[nH]c34)c2)CCCCC1 [Compound 4017]	0.1 to 1 µM	
CNC(=O)C(=O)c1c[nH]c2c(OC(C)C)cc3c(C(=O)NC)c(-c4ccc(F)cc4)oc3c12 [Compound 2001]	> 1 µM	
CNC(=O)c1c(-c2ccc(F)cc2)oc2c1cc(-c1cccc(C(=O)NCC(F)(F)C(F)(F)C(F)(F)F)c1)c1[nH]ccc12 [Compound 4007]	< 0.1 µM	0.049 µM
CNC(=O)c1c(-c2ccc(F)cc2)oc2c1cc(-c1cccc(C(=O)NC(C)(C)C)c1)c1c2c(C)cn1S(C)(=O)=O [Compound 5003]	> 1 µM	
